Reference: US6420129B1, “Reagent composition for determination of electrolytes” (Toyo Boseki Kabushiki Kaisha, priority 1998, dated 2002)

How the values were obtained:
[1] = biological target: T1, Inactive α-amylase (from swine pancreas) (Sus scrofa, UniProt P00690); assay: Relative sensitivity in determination of calcium with 10 mg/dl calcium standard solution; assay type: biochemical; conditions: for Relative sensitivity (%) when sensitivity in case of no addition is taken as 100%: just after the preparation, 10 mg/dl calcium standard; for sensitivity in the determination of the standard solution (in words): by addition of the agent, versus no addition
T1 construct: α-amylase derived from the swine pancreas; from tissue; host or cells: swine pancreas
T1 sequence (P00690 16-511): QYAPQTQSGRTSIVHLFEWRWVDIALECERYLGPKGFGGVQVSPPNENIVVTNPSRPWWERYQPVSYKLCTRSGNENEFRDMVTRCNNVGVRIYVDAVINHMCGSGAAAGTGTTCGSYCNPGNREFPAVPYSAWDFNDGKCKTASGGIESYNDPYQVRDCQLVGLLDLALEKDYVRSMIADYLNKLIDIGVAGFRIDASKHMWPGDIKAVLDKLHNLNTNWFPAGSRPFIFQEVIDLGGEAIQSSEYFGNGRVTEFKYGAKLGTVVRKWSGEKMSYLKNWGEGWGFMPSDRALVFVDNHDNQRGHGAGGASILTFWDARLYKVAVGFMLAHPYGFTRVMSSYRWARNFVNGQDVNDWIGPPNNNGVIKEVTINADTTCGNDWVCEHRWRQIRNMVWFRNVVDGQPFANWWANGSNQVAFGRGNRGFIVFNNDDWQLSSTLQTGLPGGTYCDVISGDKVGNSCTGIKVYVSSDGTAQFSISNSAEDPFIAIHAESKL
Method: [table] In the test enzyme solutions of the reagents for the determination of calcium with the reagent formulations as described above in Example 1, glucosyl-α-cyclodextrin, maltosyl-α-cyclodextrin, glucosyl-β-cyclodextrin, or maltosyl-β-cyclodextrin was independently added as a cyclodextrin derivative at 0, 1.5, 3, 6, or 12 mM. To the test enzyme solutions containing 3 mM glucosyl-β-cyclodextrin was further added independently N-acetylcysteine or reduced glutathione at 2.5, 5, 10, or 20 mM, and the determination of calcium ions with a calcium standard solution was carried out as described below. According to the method as described below, the determination of the amount of calcium was carried out for test solutions just after the preparation with 10 mg/dl calcium standard solution as a sample, and the relative sensitivity (%) was determined under the respective reagent conditions when the sensitivity in the case of no addition of cyclodextrin derivatives was taken as 100%. B. Method for the Determination of the Amount of Calcium To 5.8 μl of a sample was added 180 μl of a test enzyme solution, and the mixture was pre-warmed for 5 minutes, to which 90 μl of a test substrate solution was further added to make the reaction start. […] The measuring apparatus used was HITACHI Automatic Analyzer model 7170. The measurement wavelength was 405 nm for the principal wavelength and 546 nm for the second wavelength. The measurement was carried out at 37° C. […] The test solutions thus prepared were used for the determination of the calcium standard solution in the same manner as described in Example 3.

[2] = Visual observation of test solutions for deposition of crystals or white turbidity; assay type: physicochemical; design: key to turbidity (visual observation): +: turbidity found; −: no turbidity
Method: Among the reagents for the determination of calcium with the reagent formulations as described below, test enzyme solutions were prepared by the addition of glucosyl-α-cyclodextrin (G1αCD), maltosyl-α-cyclodextrin (G2αCD), glucosyl-p-cyclodextrin (G1βCD), or maltosyl-β-cyclodextrin(G2βCD) as a cyclodextrin derivative to have a concentration of 0, 1.5, 3, 6, or 12 mM. To the test enzyme solutions containing 3 mM glucosyl-β-cyclodextrin was further added independently N-acetylcysteine or reduced glutathione to have a concentration of 2.5, 5, 10, or 20 mM.
Both kinds of test solutions prepared by the above procedures were stored at 4° C. for 3 months. Visual observation of the test solutions was carried out just after the preparation and after the storage to examine whether there was found the deposition of crystals or the presence of white turbidity. The results are shown in table 1 for the visual observation just after the preparation and in Table 2 for the visual observation after the storage.
The test solutions were prepared in the same manner as described in Example 1, except that α-cyclodextrin (αCD) (1.5, 3, 6, or 12 mM), β-cyclodextrin (βCD) (1.5, 3, 6, or 12 mM), or γ-cyclodextrin (γCD) (1.5, 3, 6, or 12 mM) was independently added instead of the cyclodextrin derivatives and the SH group containing compounds in the above reagent formulations to have the respective concentrations as shown in Table 1. Both kinds of test solutions were stored at 4° C. for 3 months. Visual observation of the test solutions was carried out just after the preparation and after the storage to examine whether there was found the deposition of crystals or the presence of white turbidity. The results are shown in Table 1 for the visual observation just after the preparation and in Table 2 for the visual observation after the storage.

[3] = biological target: T1, Inactive α-amylase (from swine pancreas); assay: Residual activity of α-amylase in test enzyme solutions after storage; assay type: biochemical; conditions: after storage at 35° C. for 7 days
Method: [table] In the test enzyme solutions of the reagents for the determination of calcium with the reagent formulations as described above in Example 1, glucosyl-α-cyclodextrin, maltosyl-α-cyclodextrin, glucosyl-β-cyclodextrin, or maltosyl-β-cyclodextrin was independently added as a cyclodextrin derivative at 12 mM. […] Instead of the cyclodextrin derivatives and the SH group containing compounds in the reagent formulations as described above in Example 1, glucose (100 mM), maltose (50 mM), maltotriose (30 mM), α-cyclodextrin (1.5 mM), β-cyclodextrin (1.5 mM), γ-cyclodextrin (1.5 mM), N-acetylcysteine (20 mM), or reduced glutathione (20 mM) was independently added to have the respective concentrations as shown in Table 3.

[4] = biological target: T1, Inactive α-amylase (from swine pancreas); assay: Relative sensitivity in determination of calcium with 10 mg/dl calcium standard solution; assay type: biochemical
[5] = after storage at 4° C. for 3 months, agent added 1.5 mM
[6] = after storage at 4° C. for 3 months, agent added 3 mM
[7] = after storage at 4° C. for 3 months, agent added 6 mM
[8] = after storage at 4° C. for 3 months, agent added 12 mM
[9] = just after the preparation, agent added 1.5 mM
[10] = just after the preparation, agent added 3 mM
[11] = just after the preparation, agent added 6 mM
[12] = just after the preparation, agent added 12 mM
[13] = after the storage at 4° C. for 3 months, at 3 mM
[14] = just after the preparation, at 6 mM

| Structure (SMILES) | Relative sensitivity (%) when sensitivity in case of no addition is taken as 100% ([1]; agent 1.5 mM) | Relative sensitivity (%) when sensitivity in case of no addition is taken as 100% ([1]; agent 3 mM) | Relative sensitivity (%) when sensitivity in case of no addition is taken as 100% ([1]; agent 6 mM) | Relative sensitivity (%) when sensitivity in case of no addition is taken as 100% ([1]; agent 12 mM) | turbidity (visual observation) [2, 5] | turbidity (visual observation) [2, 6] | turbidity (visual observation) [2, 7] | turbidity (visual observation) [2, 8] | turbidity (visual observation) [2, 9] | turbidity (visual observation) [2, 10] | turbidity (visual observation) [2, 11] | turbidity (visual observation) [2, 12] | Residual activity (%) ([3]; agent 12 mM) | also measured |
| --- | --- | --- | --- | --- | --- | --- | --- | --- | --- | --- | --- | --- | --- | --- |
| OCC1OC(OCC2OC3OC4C(CO)OC(OC5C(CO)OC(OC6C(CO)OC(OC7C(CO)OC(OC8C(CO)OC(OC2C(O)C3O)C(O)C8O)C(O)C7O)C(O)C6O)C(O)C5O)C(O)C4O)C(O)C(O)C1O (stereo not drawn) [G1αCD, glucosyl-α-cyclodextrin] | 112.8% | 120.2% | 122.3% | 118.9% | − | − | − | − | − | − | − | − | 80.4% |  |
| CC(=O)N[C@@H](CS)C(=O)O [NAC, N-acetylcysteine] |  |  |  |  |  |  |  |  |  |  |  |  |  | remaining activity at 20000 µM ([3]; agent 20 mM): 71.2% |
| OC[C@H]1O[C@@H]2O[C@H]3[C@H](O)[C@@H](O)[C@@H](O[C@H]4[C@H](O)[C@@H](O)[C@@H](O[C@H]5[C@H](O)[C@@H](O)[C@@H](O[C@H]6[C@H](O)[C@@H](O)[C@@H](O[C@H]7[C@H](O)[C@@H](O)[C@@H](O[C@H]1[C@H](O)[C@H]2O)O[C@@H]7CO)O[C@@H]6CO)O[C@@H]5CO)O[C@@H]4CO)O[C@@H]3CO [αCD, α-cyclodextrin, reference compound] |  |  |  |  | − | − | + | + | − | − | + | + |  | turbidity of test enzyme solution (in words) [2, 13]: became turbid; turbidity of test enzyme solution (in words) [2, 14]: had already become turbid; Residual activity (%) ([3]; agent 1.5 mM): 70.5% |
| OCC1OC(OC2C(CO)OC(OCC3OC4OC5C(CO)OC(OC6C(CO)OC(OC7C(CO)OC(OC8C(CO)OC(OC9C(CO)OC(OC3C(O)C4O)C(O)C9O)C(O)C8O)C(O)C7O)C(O)C6O)C(O)C5O)C(O)C2O)C(O)C(O)C1O (stereo not drawn) [G2αCD, maltosyl-α-cyclodextrin] | 112.5% | 123.0% | 119.4% | 122.8% | − | − | − | − | − | − | − | − | 82.3% |  |
| OC[C@H]1O[C@@H]2O[C@H]3[C@H](O)[C@@H](O)[C@@H](O[C@H]4[C@H](O)[C@@H](O)[C@@H](O[C@H]5[C@H](O)[C@@H](O)[C@@H](O[C@H]6[C@H](O)[C@@H](O)[C@@H](O[C@H]7[C@H](O)[C@@H](O)[C@@H](O[C@H]8[C@H](O)[C@@H](O)[C@@H](O[C@H]9[C@H](O)[C@@H](O)[C@@H](O[C@H]1[C@H](O)[C@H]2O)O[C@@H]9CO)O[C@@H]8CO)O[C@@H]7CO)O[C@@H]6CO)O[C@@H]5CO)O[C@@H]4CO)O[C@@H]3CO [γCD, γ-cyclodextrin, reference compound] |  |  |  |  | − | − | + | + | − | − | + | + |  | turbidity of test enzyme solution (in words) [2, 13]: became turbid; turbidity of test enzyme solution (in words) [2, 14]: had already become turbid; Residual activity (%) ([3]; agent 1.5 mM): 74.6% |
| OC[C@H]1O[C@H](O[C@H]2[C@H](O)[C@@H](O)C(O)O[C@@H]2CO)[C@H](O)[C@@H](O)[C@@H]1O (mixture of isomers) [maltose] |  |  |  |  |  |  |  |  |  |  |  |  |  | sensitivity in the determination of the standard solution (in words) [1]: remarkably decreased; Relative sensitivity (%) when sensitivity in case of no addition is taken as 100% ([4]; agent 6.3 mM): 99.7%; Relative sensitivity (%) when sensitivity in case of no addition is taken as 100% ([4]; agent 12.5 mM): 89.3%; Relative sensitivity (%) when sensitivity in case of no addition is taken as 100% ([4]; agent 25 mM): 83.9%; Relative sensitivity (%) when sensitivity in case of no addition is taken as 100% ([4]; agent 50 mM): 70.1%; remaining activity at 50000 µM ([3]; agent 50 mM): 73.5% |
| OCC1OC(OC2C(CO)OC(OCC3OC4OC5C(CO)OC(OC6C(CO)OC(OC7C(CO)OC(OC8C(CO)OC(OC9C(CO)OC(OC%10C(CO)OC(OC3C(O)C4O)C(O)C%10O)C(O)C9O)C(O)C8O)C(O)C7O)C(O)C6O)C(O)C5O)C(O)C2O)C(O)C(O)C1O (stereo not drawn) [G2βCD, maltosyl-β-cyclodextrin] | 122.8% | 120.7% | 120.2% | 123.0% | − | − | − | − | − | − | − | − | 93.0% |  |
| N[C@@H](CCC(=O)N[C@@H](CS)C(=O)NCC(=O)O)C(=O)O [GSH, reduced glutathione] |  |  |  |  |  |  |  |  |  |  |  |  |  | Residual activity (%) ([3]; agent 20 mM): 75.4% |
| OCC1OC(OC2C(CO)OC(OC3C(CO)OC(O)C(O)C3O)C(O)C2O)C(O)C(O)C1O (stereo not drawn) [maltotriose] |  |  |  |  |  |  |  |  |  |  |  |  |  | sensitivity in the determination of the standard solution (in words) [1]: remarkably decreased; Relative sensitivity (%) when sensitivity in case of no addition is taken as 100% ([4]; agent 3.8 mM): 47.1%; Relative sensitivity (%) when sensitivity in case of no addition is taken as 100% ([4]; agent 7.5 mM): 24.3%; Relative sensitivity (%) when sensitivity in case of no addition is taken as 100% ([4]; agent 15 mM): 7.4%; Relative sensitivity (%) when sensitivity in case of no addition is taken as 100% ([4]; agent 30 mM): 4.6%; Residual activity (%) ([3]; agent 30 mM): 77.3% |
